The values that follow come from EP4775582A1, “MACROCYCLIC COMPOUND AND ANTIBODY-DRUG CONJUGATE THEREOF” (Genfleet Therapeutics (Shanghai) Inc., priority 2023, dated 2025).

One data set has as its target KRAS G12V-cRAF (Homo sapiens, UniProt P01116+P62937, G12V). As to the kind of experiment: Assay for binding of KRAS to cRAF (HTRF, with Cyclophilin A), KRAS G12V.
The test system of the next data set is AsPC-1 p-ERK. Description: Cell p-ERK assay (HTRF), AsPC-1 cells. The note with it: Homo sapiens. It counts as cell-based, human. The method in brief: (§1)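 Phospho-ERK (T202/Y204) was measured by HTRF in lysates after 3 h compound treatment at 37 °C. Cells had been plated the previous day at 20000 per well for NCI-H441 and 10000 per well for AsPC-1. Four-parameter dose-response fitting of % inhibition gave IC50 values.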

The next data set deals with AsPC-1 cells. As to the kind of experiment: 3D cell proliferation assay (CellTiter Glo-3D), AsPC-1. In kind it is cell-based, human. The note with it: Homo sapiens, ASPC1, 120 h. The method in brief:
(§2)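 IC50 values come from four-parameter fits of inhibition rate against log compound concentration, using CellTiter-Glo luminescence read after 5 days' exposure. AsPC-1 and NCI-H441 were plated at 800 cells per well in low-serum (2% FBS) medium. Compound was dosed the day after seeding, with incubation at 37 °C, 5% CO2.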

Another data set concerns H441 p-ERK. As to the kind of experiment: Cell p-ERK assay (HTRF), NCI-H441 cells. In kind it is cell-based, human. The note with it: Homo sapiens; NCI-H441 cells (KRAS G12V), 3 h incubation. The essentials: as §1
The test system of another data set is NCI-H441 cells. Description: 3D cell proliferation assay (CellTiter Glo-3D), NCI-H441. In kind it is cell-based, human. Conditions: Homo sapiens, 120 h, NCI-H441 cells (KRAS G12V), 2% FBS, 5 days, read-out: H441 AP IC50. The method in brief: as §2
Data set [1] in a line: Solubility experiment (HPLC, external standard). Conditions: for solubility at 24 h: pH 7.4, pH 7.4 medium, 37 °C. It counts as physicochemical. How it is done:
This experiment was intended to determine the solubility of the compounds in media at different pH values. The materials used in the experiment included: a pH 1.2 medium, a pH 4.5 medium, a pH 7.4 medium, and a diluent (acetonitrile/water = 50/50). 1. The preparation methods for media are as follows:
One centrifuge tube (containing about 2 mg of the test sample) was taken, 1 mL of DMSO was added to completely dissolve the test sample, and the mixture was marked as stock-1. 0.2 mL of stock-1 was transferred into a 10 mL volumetric flask, and then the 50:50 (acetonitrile/water) solution was added to bring the volume to the mark, so as to give a control solution.
Additionally, centrifuge tubes each containing about 1 mg of the test sample were taken, 1 mL of the corresponding medium solution was then added, and the tubes were shaken on a 37 °C water bath shaker for 24 h. After centrifugation for 3 times (centrifugation time: 10 min, rotation speed: 12000 rpm), 0.2 mL of the supernatants were taken, 0.8 mL of the diluent (acetonitrile/water = 50/50) was added to each tube, and the mixtures were vortexed and mixed well to give solubility samples.
The solubility samples described above and the control solution were sequentially analyzed by high performance liquid chromatography. The chromatographic conditions are as follows:
The actual concentration of the compound in each solubility sample was calculated according to an external standard method. Concentration (μg/mL) = (ASample × CControl × DSample)/(AControl)∗1000; [formula] Asample: the peak area of the target peak in the sample solution; Ccontrol: the concentration (mg/mL) of the control solution; Dsample: the dilution factor of the sample solution; Acontrol: the peak area of the target peak in the control solution.

Another data set deals with KRAS WT-cRAF (Homo sapiens, UniProt P01116+P62937). As to the kind of experiment: Assay for binding of KRAS to cRAF (HTRF, with Cyclophilin A), KRAS WT.
Sequence of KRAS WT-cRAF (P01116 1-188 isoform P01116-2): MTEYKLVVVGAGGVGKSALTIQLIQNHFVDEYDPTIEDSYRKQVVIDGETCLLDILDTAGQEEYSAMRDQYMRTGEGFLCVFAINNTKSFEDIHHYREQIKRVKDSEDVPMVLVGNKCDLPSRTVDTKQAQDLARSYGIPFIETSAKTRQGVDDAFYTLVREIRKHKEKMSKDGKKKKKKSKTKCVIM
Sequence of KRAS WT-cRAF (P62937 whole entry): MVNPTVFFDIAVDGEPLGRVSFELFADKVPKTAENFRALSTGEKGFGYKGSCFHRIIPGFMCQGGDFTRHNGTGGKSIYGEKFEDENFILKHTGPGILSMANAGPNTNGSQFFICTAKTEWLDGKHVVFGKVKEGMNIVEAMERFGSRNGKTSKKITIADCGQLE
The mark [2] stands for this setting: KRAS G12V-cRAF binding assay(nM), GPPNP-KRAS G12V, IC50 values.
Where [3] appears, read: ASPC1, AsPC-1 cells (KRAS G12D), 3 h incubation, read-out: AsPC-1 p-ERK IC50.
[4] abbreviates: AsPC-1 cells (KRAS G12D), 3D, 2% FBS, 5 days, read-out: AsPC-1 AP IC50.
Where [5] appears, read: KRAS WT-cRAF binding assay(nM), GPPNP-KRAS WT, IC50 values.
Where [6] appears, read: read-out: KRAS G12V-cRAF binding assay, GPPNP-KRAS G12V, IC50 values.
Where [7] appears, read: ASPC1, 3 h, read-out: AsPC-1 p-ERK IC50(nM).
Where [8] appears, read: read-out: KRAS WT-cRAF binding assay, GPPNP-KRAS WT, IC50 values.

Each structure is given as a SMILES string. In brackets after ≈: the same amount, converted by molar mass. Like-named read-outs stand apart in the source and are kept apart here.

Sequence of KRAS G12V-cRAF (P01116 1-188 isoform P01116-2 G12V): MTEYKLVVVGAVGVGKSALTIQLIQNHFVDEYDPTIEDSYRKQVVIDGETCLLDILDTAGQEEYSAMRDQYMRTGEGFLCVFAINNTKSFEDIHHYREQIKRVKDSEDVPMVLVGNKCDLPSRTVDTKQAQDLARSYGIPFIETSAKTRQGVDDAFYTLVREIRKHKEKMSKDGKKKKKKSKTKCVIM
Sequence of KRAS G12V-cRAF (P62937 whole entry): as the sequence (P62937 whole entry) above
Procedure for KRAS G12V-cRAF: (§3) The plate was centrifuged at 1000 rpm for 1 min and then incubated in the thermostatic incubator at 20 °C for 30 min. […] The plate was centrifuged at 1000 rpm for 1 min and then incubated in the thermostatic incubator at 20 °C for 60 min. […] The working solution was added to the aforementioned assay plate at 5 µL/well. The plate was centrifuged at 1000 rpm for 1 min and then incubated in the thermostatic incubator at 20 °C for 60 min.
Procedure for KRAS WT-cRAF: as §3

On to `COCCn1c(-c2cc(C#CCN3CCC(C#N)(CO)CC3)c[n+]([O-])c2C(C)OC)c2c3cc(ccc31)-c1csc(n1)CC(NC(=O)C1C(C)C1C)C(=O)N1CCCC(N1)C(=O)OCC(C)(C)C2` (atropisomer, axis not shown; (Ra)) [Compound Z42-1, 5-(3-(4-cyano-4-(hydroxymethyl)piperidin-1-yl)prop-1-yn-1-yl)-(Ra)-3-((6^3S,4S,Z)-4-((1r,2R,3S)-2,3-dimethylcyclopropane-1-carboxamido)-1^1-(2-methoxyethyl)-10,10-dimethyl-5,7-dioxo-6^1,6^2,6^3,6^4,6^5,6^6-hexahydro-1^1H-8-oxa-2(4,2)-thiazola-1(5,3)-indola-6(1,3)-pyridazinacycloundecaphane-1^2-yl)-2-((S)-1-methoxyethyl)pyridine 1-oxide], for which the IC50 was 9.9 nM at KRAS G12V-cRAF (setting [2]); 1.32 nM in the data set with AsPC-1 p-ERK (setting [3]); 0.33 nM in the data set on AsPC-1 cells (setting [4]); 1.8 nM in the data set with H441 p-ERK; 0.65 nM in the data set with NCI-H441 cells; 18.9 nM at KRAS WT-cRAF (setting [5]). Moreover, the concentration in solution in data set [1] (pH 7.4 medium) (solubility at 24 h) came to 15.6 µg/mL (≈ 16.4 µM).

Turning to `CCn1c(-c2cc(C#CCN3CCS(=O)(=O)CC3)cnc2[C@H](C)NC)c2c3cc(ccc31)-c1csc(n1)C[C@H](NC(=O)[C@H]1[C@H](C)[C@@H]1C)C(=O)N1CCC[C@H](N1)C(=O)OCC(C)(C)C2` (atropisomer, axis not shown; (Ra)) [Compound Z66, (1r,2R,3S)-N-((6^3S,4S,Z)-(Ra)-1^2-(5-(3-(1,1-dioxidothiomorpholino)prop-1-yn-1-yl)-2-((S)-1-(methylamino)ethyl)pyridin-3-yl)-1^1-ethyl-10,10-dimethyl-5,7-dioxo-6^1,6^2,6^3,6^4,6^5,6^6-hexahydro-1^1H-8-oxa-2(4,2)-thiazola-1(5,3)-indola-6(1,3)-pyridazinacycloundecaphane-4-yl)-2,3-dimethylcyclopropane-1-carboxamide], the IC50 at KRAS G12V-cRAF (setting [6]) amounted to 8.54 nM; in the data set on AsPC-1 p-ERK (setting [7]) it was 0.3 nM; with AsPC-1 cells (read-out: AsPC-1 AP IC50(nM)) it was 0.12 nM; in the data set on H441 p-ERK it was 0.32 nM; in the data set with NCI-H441 cells, 0.11 nM; at KRAS WT-cRAF (setting [8]), 19.5 nM. In data set [1] (ph 7.4 medium, pH 7.4, 1440 min), the “Solubility at pH 7.4 (µg/mL)” value is reported as 66.54 µg/mL.

For the compound `COCCn1c(-c2cc(C#CCN3CCN(C(=O)CO)CC3)c[n+]([O-])c2[C@H](C)OC)c2c3cc(ccc31)-c1csc(n1)C[C@H](NC(=O)[C@H]1[C@H](C)[C@@H]1C)C(=O)N1CCC[C@H](N1)C(=O)OCC(C)(C)C2` (atropisomer, axis not shown; (Ra)) [Compound Z54, (Ra)-3-((6^3S,4S,Z)-4-((1r,2R,3S)-2,3-dimethylcyclopropane-1-carboxamido)-1^1-(2-methoxyethyl)-10,10-dimethyl-5,7-dioxo-6^1,6^2,6^3,6^4,6^5,6^6-hexahydro-11H-8-oxa-2(4,2)-thiazola-1(5,3)-indola-6(1,3)-pyridazinacyclodecaphane-1^2-yl)-5-(3-(4-(2-hydroxyacetyl)piperazin-1-yl)prop-1-yn-1-yl)-2-((S)-1-methoxyethyl)pyridine 1-oxide], the IC50 is 12.1 nM at KRAS G12V-cRAF (setting [6]), 14 nM with AsPC-1 cells (setting [4]), 4.7 nM in the data set with NCI-H441 cells and 74.8 nM on KRAS WT-cRAF (setting [8]). The compound further had a solubility at 24 h in data set [1] (ph 7.4 medium) of 36.2 µg/mL (≈ 38 µM).

Take `CCn1c(-c2cc(C#CCN3CCN(C(=O)CN)CC3)cnc2[C@H](C)OC)c2c3cc(ccc31)-c1coc(n1)C[C@H](NC(=O)[C@H]1[C@@H]3COC[C@@H]31)C(=O)N1CCC[C@H](N1)C(=O)OCC(C)(C)C2` (atropisomer, axis not shown; (Ra)) [Compound Z167, (1R,5S,6r)-N-((6^3S,4S,Z)-1^2-(5-(3-(4-glycylpiperazin-1-yl)prop-1-yn-1-yl)-(Ra)-2-((S)-1-methoxyethyl)pyridin-3-yl)-1^1-ethyl-10,10-dimethyl-5,7-dioxo-6^1,6^2,6^3,6^4,6^5,6^6-hexahydro-1^1H-8-oxa-2(4,2)-oxazola-1(5,3)-indola-6(1,3)-pyridazinacycloundecaphane-4-yl)-3-oxabicyclo[3.1.0]hexane-6-carboxamide]: the IC50 on KRAS G12V-cRAF (setting [6]) worked out at 13.9 nM; in the data set with AsPC-1 p-ERK (setting [7]), 1.64 nM; in the data set on H441 p-ERK, 1.27 nM; on KRAS WT-cRAF (setting [8]), 40.9 nM. The concentration in solution in data set [1] (ph 7.4 medium) (solubility at 24 h) was 363 µg/mL (≈ 401 µM).

For the compound `CCn1c(-c2cc(C#CCN3CCS(=O)(=O)CC3)cnc2C(C)NC)c2c3cc(ccc31)-c1csc(n1)CC(NC(=O)C1C(C)C1C)C(=O)N1CCCC(N1)C(=O)OCC(C)(C)C2` (atropisomer, axis not shown; (Ra)) [Compound Z67, (1r,2R,3S)-N-((6^3S,4S,Z)-(Ra)-1^2-(5-(3-(1,1-dioxidothiomorpholino)prop-1-yn-1-yl)-2-((R)-1-(methylamino)ethyl)pyridin-3-yl)-1-ethyl-10,10-dimethyl-5,7-dioxo-6^1,6^2,6^3,6^4,6^5,6^6-hexahydro-1^1H-8-oxa-2(4,2)-thiazola-1(5,3)-indola-6(1,3)-pyridazinacycloundecaphane-4-yl)-2,3-dimethylcyclopropane-1-carboxamide], the IC50 on KRAS G12V-cRAF (setting [2]) was 8.7 nM; in the data set on AsPC-1 p-ERK (setting [3]), 10.6 nM; in the data set with H441 p-ERK, 8.12 nM; on KRAS WT-cRAF (setting [5]) it was 62 nM. In data set [1] (pH 7.4 medium), this compound returned a solubility at 24 h of 101 µg/mL (≈ 113 µM).

For `COCCn1c(-c2cc(C#CCN3CCN(C(=O)CO)CC3)c[n+]([O-])c2C(C)OC)c2c3cc(ccc31)-c1csc(n1)CC(NC(=O)C1C3COCC31)C(=O)N1CCCC(N1)C(=O)OCC(C)(C)C2` (atropisomer, axis not shown; (Ra)) [Compound Z38-1, (Ra)-3-((6^3S,4S,Z)-4-((1R,5S,6r)-3-oxabicyclo[3.1.0]hexane-6-carboxamido)-1^1-(2-methoxyethyl)-10,10-dimethyl-5,7-dioxo-6^1,6^2,6^3,6^4,6^5,6^6-hexahydro-1^1H-8-oxa-2(4,2)-thiazola-1(5,3)-indola-6(1,3)-pyridazinacycloundecaphane-1^2-yl)-5-(3-(4-(2-hydroxyacetyl)piperazin-1-yl)prop-1-yn-1-yl)-2-((S)-1-methoxyethyl)pyridine-1-oxide], the concentration for half-maximal inhibition (IC50) on KRAS G12V-cRAF (setting [2]) was 37.7 nM; at KRAS WT-cRAF (setting [5]), 69.6 nM. The solubility at 24 h in data set [1] (pH 7.4 medium) was determined as 97 µg/mL (≈ 100 µM).

In the case of `CCn1c(-c2cc(C#CCN3CCS(=O)(=O)CC3)cnc2C(C)OC)c2c3cc(ccc31)-c1csc(n1)CC(NC(=O)C1C3CNCC31)C(=O)N1CCCC(N1)C(=O)OCC(C)(C)C2` (atropisomer, axis not shown; (Ra)) [Compound Z18, (1R,5S,6r)-N-((6^3S,4S,Z)-(Ra)-1^2-(5-(3-(1,1-dioxidothiomorpholino)prop-1-yn-1-yl)-2-((S)-1-methoxyethyl)pyridin-3-yl)-1^1-ethyl-10,10-dimethyl-5,7-dioxo-6^1,6^2,6^3,6^4,6^5,6^6-hexahydro-1^1H-8-oxa-2(4,2)-thiazola-1(5,3)-indola-6(1,3)-pyridazinacycloundecaphane-4-yl)-3-azabicyclo[3.1.0]hexane-6-carboxamide], the IC50 on KRAS G12V-cRAF (setting [2]) was 16.5 nM; at KRAS WT-cRAF (setting [5]), 31 nM. In data set [1] (pH 7.4 medium), the concentration in solution (solubility at 24 h) was 22.4 µg/mL (≈ 24.6 µM).
